Laboratory results: patent US20100168112A1, “2-Substituted and 4-substituted aryl nitrone compounds” (RENOVIS, INC., priority 2004, published 2010)

Key:
[1] = Pharmacokinetic evaluation following intravenous and oral administration in rats; format: in vivo; conditions: male, Sprague-Dawley; for Cmax / Tmax / bioavailability: 5 mg/kg; for Cmax: rat plasma; for Cmax / Tmax: oral gavage, 2 mg/mL at 2.5 mL/kg; for clearance / Vd / Tmax / bioavailability / half-life: plasma, rat; for clearance / Vd / half-life: 1 mg/kg; for clearance / Vd: intravenous administration, 1 mg/mL at 1.0 mL/kg; for clearance: read-out: CI (clearance) (converted); for Vd: read-out: Vd (volume of distribution); for bioavailability: po 2 mg/mL at 2.5 mL/kg vs iv 1 mg/mL at 1.0 mL/kg, dose-normalized, read-out: F (%) oral bioavailability; for half-life: intravenous, read-out: T1/2 elimination half life (converted)
Method in brief: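 Male Sprague-Dawley rats, fasted, dosed iv (1 mg/mL formulation, 1.0 mL/kg, jugular or tail vein) or by oral gavage (2 mg/mL suspension, 2.5 mL/kg). Plasma sampled from 2 min to 480 min, some to 24 h, and quantified by LC-MS/MS (MRM). Parameters from noncompartmental analysis.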

[2] = DPPH free radical-scavenging/antioxidant assay; format: biochemical; conditions: 50 μM DPPH in 80% methanol; 24 h time point; read-out: EC50 (concentration at which a compound reduces by 50% the peak absorbance of DPPH at 520 nm)
Method in brief: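 Compounds diluted 100-fold from DMSO stocks into 50 μM DPPH in 80% methanol; absorbance at 520 nm followed kinetically to steady state, with the 24 h reading used. EC50 interpolated from OD520 versus concentration; Trolox, BHA, PBN and S-PBN as positive controls, DMSO as vehicle.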

[3] = Plasma protein binding (equilibrium dialysis), rat plasma; format: in vitro ADME; conditions: 1 μg/mL in plasma, dialysis vs phosphate buffer pH 7.4 overnight at 37° C., read-out: Plasma Protein Binding % Bound Rat (converted)
Experimental: (§1) Nitrone compounds of this invention were individually dissolved in DMSO to make a stock solution of 1 mg/mL. The compound was spiked into plasma to achieve a final concentration of 1 μg/mL. Spiked plasma and phosphate buffer (0.1M, pH 7.4), 200 μl each, were added to the opposite sides of the membrane in a 96-well equilibrium dialyzer. The dialyzer plate was then covered and equilibrated overnight at 37° C. on an orbital shaker. Aliquots were taken from the plasma and the buffer compartments and prepared by adding blank plasma to samples from the buffer compartments and drug-free phosphate buffer to samples from the plasma compartments to eliminate the matrix effects. The samples were extracted using protein precipitation procedure by adding CH3CN. The samples were analyzed using a LC/MS/MS method. The percentage of free and bound nitrone compound were calculated according to the following formula:
(§2) %Free=[Free Drug/Total Drug]*100=[(Peak Area)buffer/(Peak Area)serum]*100%Bound=100%Free

[4] = Plasma protein binding (equilibrium dialysis), human plasma; format: in vitro ADME; conditions: 1 μg/mL in plasma, dialysis vs phosphate buffer pH 7.4 overnight at 37° C., read-out: Plasma Protein Binding % Bound Human (converted)
Experimental: as §1, §2

[5] = Microsomal stability in rat liver microsomes; format: in vitro ADME; conditions: rat liver microsomes 0.5 mg/ml, 1 mM NADPH, ~500 ng/ml compound, 37° C.
Experimental: Frozen Sprague-Dawley rat liver microsomes (RLM) were thawed on ice and gently mixed before use. The final reaction mixture consisted of a nitrone compound of this invention (at ˜500 ng/ml), 1 mM NADPH, and 0.5 mg/ml of RLM protein in 0.1 M PBS (pH7.4), with organic solvent concentration not exceeding 1% (v/v). Per set of incubations, a positive control compound was included. The mixture was first pre-incubated 3 to 5 minutes at 37° C. without NADPH, and the reaction was then initialized by the addition of NADPH and incubated at 37° C. for up to 30 minutes. An aliquot of the reaction mixture was sampled at the initiation of the reaction and at designated time after reaction started. The drawn samples were quenched with acetonitrile, diluted with mobile phase to ensure the detection of test article in the linear range, and analyzed by LC/MS/MS. Half-life or percentage of remaining nitrone compound was calculated using standard methods. A similar method, or a slight variation of it, was used to test the stability of nitrones in human liver microsomes (HLM).

[6] = test system: CCI rats; assay: Mechanical allodynia in mononeuropathic pain model (chronic constrictive injury, CCI, Bennett model); format: in vivo, SD rats; conditions: for anti-allodynic effect on ipsilateral hind paw vs vehicle (in words): single dose 50 mg/kg, p.o.; for PWT ipsilateral hind paw (von Frey): 50 mg/kg p.o. single dose, mean ± SEM
Text: Adult male SD rats weighing 250-300 gm (Charles River Laboratories, San Diego, Calif.) were used. The animal room was lighted artificially at a 12-hr light-dark cycle (7:00 A.M. to 7:00 P.M) with water and food supply ad libitum. Animals were allocated randomly into groups. Seven days before establishing the mononeuropathic pain disease model, rats were trained on a metal mesh floor, covered with a plastic box (10×10×18 cm) 1-2 hr per day to habituate. During the habituating phase, non-painful tactile stimulation on the plantar surface of each hind paw was induced by a set of calibrated von Frey filaments, through the mesh floor, as described in example 2.
Following the 7-day training phase, the animals were anesthetized by i.p. injection of sodium pentobarbital (65 mg/kg, Abbott Lab, Chicago, Ill.). Under aseptic procedures, the skin of the left thigh was cut open for ˜2 cm. Mid-thigh level of the common sciatic nerve was exposed after blunt separation of the muscles. Two 4-0 silk and one 4-0 chromic gut sutures (both from Ethicon, Somerville, N.J.) were loosely ligated around the nerve, with a 1-1.5 mm interval between each of them. Skin wound was then close with wound clips. The right side (i.e., the contralateral side) was not surgically injured. After recovery from surgery, rats showing post-surgery neurological deficits or poor grooming were excluded from the experiments. This surgical procedure (i.e., chronic constrictive injury, CCI, or Bennett model) to establish mononeuropathic pain disease model has been described elsewhere (Bennett, G. J. and Xie, Y. K.: A peripheral mononeuropathy in rat that produces disorders of pain sensation like those seen in man. Pain, 33: 87-107, 1988).
On days 1, 3, 4, 7, 9, 11, and 14 after surgery, animals were tested for mechanical allodynia with von Frey filaments as described previously. On or around post-surgical day 14, the ipsilateral hind paw, felt to 5 grams, an indication of allodynia began to manifest mechanical allodynia (i.e., amplified response to non-painful tactile stimulation by von Frey filaments). The contralateral hind paws remained above the 5-gram level (i.e., no allodynia).
After manifestation of this allodynia, Compound 62 (50 mg/kg, p.o.), Compound 63 (50 mg/kg, p.o.), Compound 66 (50 mg/kg, p.o.), Compound 23 (50 mg/kg, p.o.), 4-hydroxy-tempol (TEMPOL, 50 mg/kg, p.o.), or piroxicam (a COX1 inhibitor, 50 mg/kg, p.o.) were administered to randomly-assigned animals. Changes of mechanical allodynia in the ipsilateral hind paw were recorded at several time points over the course of up to 24 hr.

[7] = test system: carrageenan-sensitized inflammatory model of rat; assay: Carrageenan-sensitized thermal hyperalgesia (Hargreaves test); format: in vivo; conditions: 30 mg/kg oral, data not shown
Experimental: In this experiment, animals were habituated to the test environment for 2 days. Each rat was individually placed on a transparent perplex glass floor, covered with a plastic box (10×10×18 cm), and allowed 0.5-1 hr to habituate. After the acclimation period, basal thermal withdrawal latency (PWL, time interval between heat stimulation and paw withdrawal) was measured by exposing the plantar surface of a rats hind paw to a beam of radiant heat generated from a focused projection bulb through a transparent perplex glass surface (Hargreaves test; Hargreaves, K. R., Dubner, R., Brown, F., Flores, C. & Joris, J.: A new and sensitive method for measuring thermal nociception in cutaneous hyperalgesia. Pain, 32: 77-88, 1988). The PWL was averaged from at least two trials separated by a 2 min interval. A timer was used to measure the withdrawal latency and a cut of time of 20-sec was used to prevent tissue damage. Before the test on STZ-diabetic rats, the intensity of the radiating heat was adjusted to the level that caused naive animal to withdraw its paw at around 10 seconds.
After a stable basal PWL was obtained, the animals were briefly anesthetized with isoflurane (2-5% to effect). One side of their hind paws received an intraplantar injection of lambda carrageenan (2 mg in 100 microliter sterile saline, Sigma, St. Louis, Mo.). The contralateral side received no injection and served as an intra-subject control. The animals were then returned to their home cages and transferred to the individual testing chambers for heat thermal hyperalgesic testing, 2.5 hr after carrageenan injection. 3-hr post-carrageenan injection, PWLs of both hind paws (i.e., ipsilateral and contralateral) were measured at several time points post-carrageenan injection (15-min to 24-hr).
For compound testing, rats were randomly enrolled into groups that, immediately after the 3-hr post-carrageenan PWL was obtained, received oral dosing of Compound 62 (50 mg/kg), Compound 63 (50 mg/kg), vehicle (1 ml/kg), or indomethacin (30 mg/kg). Compound 62 and Compound 63 were prepared as a suspension in vehicle (96% of 0.5% CMC and 4% of 10% Tween 80) while indomethacin was prepared as a 30 mg/ml in normal saline.

SMILES	Cmax [1] [ng/mL]	clearance [1] [mL/min/kg]	Vd [1] [L/kg]	Tmax [1] [min]	bioavailability [1] [%]	half-life [1] [min]	EC50 [2] [µM]	fraction unbound at 1 μg/mL [3]	fraction unbound at 1 μg/mL [4]	% of Nitrone Remaining at 30 min (Rat) [5] [%]	anti-allodynic effect on ipsilateral hind paw vs vehicle (in words) [6]	effect on carrageenan-sensitized heat hyperalgesia (in words) [7]	PWT ipsilateral hind paw (von Frey) ([6]; post-dosing time 30 min) [gm]	PWT ipsilateral hind paw (von Frey) ([6]; post-dosing time 60 min) [gm]	PWT ipsilateral hind paw (von Frey) ([6]; post-dosing time 300 min) [gm]	PWT ipsilateral hind paw (von Frey) ([6]; post-dosing time 1440 min) [gm]	PWT ipsilateral hind paw (von Frey) ([6]; post-dosing time −15 min (pre-dose)) [gm]
CN1C(C(=O)Nc2ccccn2)=C(O)c2ccccc2S1(=O)=O [piroxicam, reference compound]											long-lasting anti-allodynic effect						
COc1ccc2c(c1)c(CC(=O)O)c(C)n2C(=O)c1ccc(Cl)cc1 [indomethacin, reference compound]												significantly reversed carrageenan-sensitized heat hyperalgesia					
CC(C)S(=O)(=O)c1ccccc1/C=[N+](\[O-])C(C)(C)C [Compound 69, N-tert-Butyl-C-[2-(2-propanesulfonyl)phenyl]nitrone]	1840	14	0.76	11.4	54.9	38.4	> 1000	0.755	0.532								
CC1(C)CC(O)CC(C)(C)N1[O] [TEMPOL, 4-hydroxy-tempol, reference compound]											no significant anti-allodynic effect		4.80 ± 0.49	4.80 ± 0.49	5.48 ± 1.09	4.80 ± 1.02	4.00 ± 0.89
CC(C)S(=O)(=O)c1ccc(/C=[N+](\[O-])C(C)(C)C)cc1 [Compound 70, N-tert-Butyl-C-[4-(2-propanesulfonyl)phenyl]nitrone]	1270	20	1.07	29.4	52.2	37.2	> 1000	0.718	0.796								

Continued, in another order:

Cmax [1] [ng/mL]	clearance [1] [mL/min/kg]	Vd [1] [L/kg]	Tmax [1] [min]	bioavailability [1] [%]	half-life [1] [min]	EC50 [2] [µM]	fraction unbound at 1 μg/mL [3]	fraction unbound at 1 μg/mL [4]	% of Nitrone Remaining at 30 min (Rat) [5] [%]	SMILES	anti-allodynic effect on ipsilateral hind paw vs vehicle (in words) [6]	effect on carrageenan-sensitized heat hyperalgesia (in words) [7]	PWT ipsilateral hind paw (von Frey) ([6]; post-dosing time 30 min) [gm]	PWT ipsilateral hind paw (von Frey) ([6]; post-dosing time 60 min) [gm]	PWT ipsilateral hind paw (von Frey) ([6]; post-dosing time 300 min) [gm]	PWT ipsilateral hind paw (von Frey) ([6]; post-dosing time 1440 min) [gm]	PWT ipsilateral hind paw (von Frey) ([6]; post-dosing time −15 min (pre-dose)) [gm]
4760	1.17	0.42	79.8	46.4	266	> 1000	0.78	0.864		CCS(=O)(=O)c1ccc(/C=[N+](\[O-])C(C)(C)C)cc1 [Compound 67, N-tert-Butyl-C-(4-ethanesulfonylphenyl)nitrone]							
						> 1000			0	CCN(CC)S(=O)(=O)c1ccccc1/C=[N+](\[O-])Cc1ccccc1 [Compound 32, N-Benzyl-C-(2-diethylsulfamoylphenyl)nitrone]							
2110	7.83	0.63	59.4	36.4	55.8	500 to 1000	0.783	0.781		CCS(=O)(=O)c1ccccc1/C=[N+](\[O-])C(C)(C)C [Compound 68, N-tert-Butyl-C-(2-ethanesulfonylphenyl)nitrone]							
108	31	1.66	16.8	5.87	45.6	> 1000	0.484	0.544		CC(C)(C)/[N+]([O-])=C/c1ccc(S(=O)(=O)C2CCCC2)cc1 [Compound 71, N-tert-Butyl-C-[4-(cyclopentanesulfonyl)phenyl]nitrone]							
1520	11	2.69	19.2	59.8	169	> 1000	0.319	0.367		CC(C)(C)/[N+]([O-])=C/c1ccc(C(F)(F)F)cc1S(C)(=O)=O [Compound 72, N-tert-Butyl-C-[2-methanesulfonyl-4-trifluoromethylphenyl]nitrone]							
